Tests used:
[1] = tested on: SJSA-1; experiment: Cell proliferation inhibition (CCK-8) against SJSA-1; format: cell-based; details: SJSA-1 human osteosarcoma cells, 5 days
Protocol: Cellular data of selected compounds against SW480 and SJSA-1 was conducted according to the following protocol.
Cells in the logarithmic growth phase were seeded into 96-well plates (Corning, 3599; 180 μL/well; 3000 cells/well for both SW480 and SJSA-1 cell lines) and cultured in an incubator (Thermo, 3111) for 24 h. Cells were then treated in triplicate by adding 20 μL/well solution containing different concentrations of the tested compounds in 5% CO2 at 37° C. for 5 days. After that, cells were treated for additional 4 h by adding 10 μL/well Cell Counting Kit-8 (CCK-8; DojinDo, CK04) solution. Finally, the absorbance was read at 450 nm with a microplate reader spectra-MAX190 (Molecular Devices, Sunnyvale, Calif.). The IC50 value was determined with SofeMax Pro, a software equipped in this reader. The cell proliferation inhibition rate was calculated as: proliferation inhibition (%)=[1-(A450 treated/A450 control)]×100%.
All the tested compounds could be dissolved in DMSO at 10^−2 M (as stock solution). […] The compounds were diluted at 9 3-fold serial concentrations beginning at the initial concentration of 10 μM (i.e., the highest final concentration to treat the cells). The detailed drug dilution protocol is: Add 5 μL stock solution (10^−2 M) into 495 μL medium, transfer 125 μL of the resulting solution (100 μM) into 250 μL medium, and repeat this till the 9th resulting concentration of 15.2 nM. Pipet 20 μL of each drug dilution into cell plates.

[2] = molecular target: GST-tag full length MDM2 (Homo sapiens (Human), UniProt Q00987); experiment: MDM2-p53 TR-FRET Binding Assays; details: MDM2 / biotin p53 peptide
Sequence of GST-tag full length MDM2 (Q00987 whole entry): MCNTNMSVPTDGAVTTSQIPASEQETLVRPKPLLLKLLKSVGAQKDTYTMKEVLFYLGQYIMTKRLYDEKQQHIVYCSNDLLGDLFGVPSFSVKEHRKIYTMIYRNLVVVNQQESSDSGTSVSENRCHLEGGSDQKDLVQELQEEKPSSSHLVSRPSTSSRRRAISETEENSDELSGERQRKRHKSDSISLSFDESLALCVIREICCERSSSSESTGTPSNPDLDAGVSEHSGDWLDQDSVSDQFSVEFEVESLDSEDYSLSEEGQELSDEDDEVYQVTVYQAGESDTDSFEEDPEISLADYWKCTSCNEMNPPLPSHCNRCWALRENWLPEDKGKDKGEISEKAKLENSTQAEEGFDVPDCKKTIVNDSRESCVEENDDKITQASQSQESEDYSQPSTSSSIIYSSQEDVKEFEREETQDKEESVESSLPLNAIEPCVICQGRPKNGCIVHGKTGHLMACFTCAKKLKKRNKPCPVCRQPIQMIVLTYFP
Excerpt: MDM2-p53 TR-FRET Binding Assays
Examples are listed in the following.

| SMILES | IC50 ([1]; Homo sapiens, SJSA-1, 120 h) [nM] | IC50 [2] [nM] | IC50 [1] [nM] |
| --- | --- | --- | --- |
| COc1cc(C(=O)O)ccc1NC(=O)[C@@H]1N[C@@H](C[C@@H](C)C(F)(F)F)[C@@]2(C(=O)Nc3cc(Cl)ccc32)[C@H]1c1cccc(Cl)c1F (racemic) [Example 11, 4-[[(2′R,3R,3′S,5′S)-6-chloro-3′-(3-chloro-2-fluoro-phenyl)-2-oxo-5′-[(2R)-3,3,3-trifluoro-2-methyl-propyl]spiro[indoline-3,4′-pyrrolidine]-2′-carbonyl]amino]-3-methoxy-benzoic acid] | ≤ 71 | ≤ 7.2 |  |
| COc1cc(C(N)=O)ccc1NC(=O)[C@@H]1N[C@@H](C[C@H](C)C(F)(F)F)[C@@]2(C(=O)Nc3cc(Cl)ccc32)[C@H]1c1cccc(Cl)c1F (racemic) [Example 12, (2′R,3R,3′S,5′S)-N-(4-carbamoyl-2-methoxy-phenyl)-6-chloro-3′-(3-chloro-2-fluoro-phenyl)-2-oxo-5′-[(2S)-3,3,3-trifluoro-2-methyl-propyl]spiro[indoline-3,4′-pyrrolidine]-2′-carboxamide] | ≤ 71 | ≤ 7.2 |  |
| COc1cc(C(N)=O)ccc1NC(=O)[C@@H]1N[C@@H](C[C@@H](C)C(F)(F)F)[C@@]2(C(=O)Nc3cc(Cl)ccc32)[C@H]1c1cccc(Cl)c1F (racemic) [Example 13, (2′R,3R,3′S,5′S)-N-(4-carbamoyl-2-methoxy-phenyl)-6-chloro-3′-(3-chloro-2-fluoro-phenyl)-2-oxo-5′-[(2R)-3,3,3-trifluoro-2-methyl-propyl]spiro[indoline-3,4′-pyrrolidine]-2′-carboxamide] | ≤ 71 | ≤ 7.2 |  |
| COc1cc(C(N)=O)ccc1NC(=O)[C@@H]1N[C@@H](CC(C)(C)CF)[C@@]2(C(=O)Nc3cc(Cl)ccc32)C1c1cccc(Cl)c1F (single isomer, unassigned) [Example 22] | ≤ 20 | ≤ 3.6 |  |
| CCOC(=O)c1ccc(NC(=O)[C@@H]2N[C@@H](C[C@H](C)C(F)(F)F)[C@@]3(C(=O)Nc4cc(Cl)ccc43)[C@H]2c2cccc(Cl)c2F)c(OC)c1 [Example 9b, ethyl 4-[[(2′R,3R,3′S,5′S)-6-chloro-3′-(3-chloro-2-fluoro-phenyl)-2-oxo-5′-[(2S)-3,3,3-trifluoro-2-methyl-propyl]spiro[indoline-3,4′-pyrrolidine]-2′-carbonyl]amino]-3-methoxy-benzoate] | 71 to 550 |  |  |
| CCOC(=O)c1ccc(NC(=O)[C@@H]2N[C@@H](C[C@@H](C)C(F)(F)F)[C@@]3(C(=O)Nc4cc(Cl)ccc43)[C@H]2c2cccc(Cl)c2F)c(OC)c1 [Example 26, ethyl-4-[[(2′R,3′R,3′S,5′S)-6-chloro-3′(3-chloro-2-fluoro-phenyl)-2-oxo-5′-[(2R)-3,3,3-trifluoro-2-methyl-propyl]spiro[indoline-2,4′-pyrrolidine]-2′-carbonyl]amino]-3-methoxy-benzoate] |  | ≤ 7.2 | ≤ 500 |
| COc1cc(C(=O)O)ccc1NC(=O)[C@@H]1N[C@@H](C[C@@H](C)C(F)(F)F)[C@@]2(C(=O)Nc3cc(Cl)ccc32)[C@H]1c1cccc(Cl)c1F [Example 27, 4-[[(2′R,3R,3′S,5′S)-6-chloro-3′-(3-chloro-2-fluoro-phenyl)-2-oxo-5′-[(2R)-3,3,3-trifluoro-2-methyl-propyl]spiro[indoline-3,4′-pyrrolidine]-2′-carbonyl]amino]-3-methoxy-benzoic acid] | ≤ 20 | ≤ 3.6 |  |
| COc1cc(C(N)=O)ccc1NC(=O)[C@@H]1N[C@@H](C[C@@H](C)C(F)(F)F)[C@@]2(C(=O)Nc3cc(Cl)ccc32)[C@H]1c1cccc(Cl)c1F [Example 28, (2′R,3R,3′S,5′S)-N-(4-carbamoyl-2-methoxy-phenyl)-6-chloro-3′-(3-chloro-2-fluoro-phenyl)-2-oxo-5′-[(2R)-3,3,3-trifluoro-2-methyl-propyl]spiro[indoline-3,4′-pyrrolidine]-2′-carboxamide] | ≤ 20 | ≤ 3.6 |  |
| COc1cc(C(=O)O)ccc1NC(=O)[C@@H]1N[C@@H](C[C@H](C)C(F)(F)F)[C@@]2(C(=O)Nc3cc(Cl)ccc32)[C@H]1c1cccc(Cl)c1F [Example 65, 4-[[(2′R,3R,3′S,5′S)-6-chloro-3′-(3-chloro-2-fluoro-phenyl)-2-oxo-5′-[(2S)-3,3,3-trifluoro-2-methyl-propyl]spiro[indoline-3,4′-pyrrolidine]-2′-carbonyl]amino]-3-methoxy-benzoic acid] | ≤ 20 | ≤ 3.6 |  |
| COc1cc(C(=O)O)ccc1NC(=O)[C@@H]1N[C@@H](CC2(CF)CC2)C2(C(=O)Nc3cc(Cl)ccc32)[C@H]1c1cccc(Cl)c1F (stereo partly shown) [Example 74, 4-{[6-chloro-4′-(3-chloro-2-fluoro-phenyl)-2′-(1-fluoromethyl-cyclopropylmethyl)-2-oxo-1,2-dihydro-spiro[indole-3,3′-pyrrolidin]e-5′-carbonyl]-amino}-3-methoxy-benzoic acid] | ≤ 20 | ≤ 7.2 |  |
| COc1cc(C(=O)O)ccc1NC(=O)[C@@H]1N[C@@H](CC2(CF)CC2)[C@@]2(C(=O)Nc3cc(Cl)ccc32)[C@H]1c1cccc(Cl)c1F [Example 76, 4-[[(2′R,3R,3′S,5′S)-6-chloro-3′-(3-chloro-2-fluoro-phenyl)-5′-[[1-(fluoromethyl)cyclopropyl]methyl]-2-oxo-spiro[indoline-3,4′-pyrrolidine]-2′-carbonyl]amino]-3-methoxy-benzoic acid] | ≤ 20 | ≤ 7.2 |  |

Next, values leading:

| IC50 ([1]; Homo sapiens, SJSA-1, 120 h) [nM] | IC50 [2] [nM] | IC50 [1] [nM] | SMILES |
| --- | --- | --- | --- |
| ≤ 71 | ≤ 7.2 |  | COc1cc(C(=O)O)ccc1NC(=O)[C@@H]1N[C@@H](C[C@H](C)C(F)(F)F)[C@@]2(C(=O)Nc3cc(Cl)ccc32)[C@H]1c1cccc(Cl)c1F (racemic) [Example 10, 4-[[(2′R,3R,3′S,5′S)-6-chloro-3′-(3-chloro-2-fluoro-phenyl)-2-oxo-5′-[(2S)-3,3,3-trifluoro-2-methyl-propyl]spiro[indoline-3,4′-pyrrolidine]-2′-carbonyl]amino]-3-methoxy-benzoic acid] |
| ≤ 71 | ≤ 3.6 |  | COc1cc(C(=O)O)ccc1NC(=O)[C@@H]1N[C@@H](CC(C)(C)CF)[C@@]2(C(=O)Nc3cc(Cl)ccc32)C1c1cccc(Cl)c1F (mixture of isomers) [Example 19, 4-[(2′R,3R,3′S,5′S)-6-chloro-3′-(3-chloro-2-fluoro-phenyl)-5′-(3-fluoro-2,2-dimethyl-propyl)-2-oxo-spiro[indoline-3,4′-pyrrolidine]-2′-carbonyl]amino-3-methoxy-benzoic acid] |
| ≤ 71 | ≤ 3.6 |  | COc1cc(C(N)=O)ccc1NC(=O)[C@@H]1N[C@@H](CC(C)(C)CF)[C@@]2(C(=O)Nc3cc(Cl)ccc32)C1c1cccc(Cl)c1F (mixture of isomers) [Example 20, (4-carbamoyl-2-methoxy-phenyl) (2′R,3R,3′S,5′S)-6-chloro-3′-(3-chloro-2-fluoro-phenyl)-5′-(3-fluoro-2,2-dimethyl-propyl)-2-oxo-spiro[indoline-3,4′-pyrrolidine]-2′-carboxamide] |
| ≤ 20 | ≤ 3.6 |  | COc1cc(C(=O)O)ccc1NC(=O)[C@@H]1N[C@@H](CC(C)(C)CF)[C@@]2(C(=O)Nc3cc(Cl)ccc32)[C@H]1c1cccc(Cl)c1F [Example 21, 4-[(2′R,3R,3′S,5′S)-6-chloro-3′-(3-chloro-2-fluoro-phenyl)-5′-(3-fluoro-2,2-dimethyl-propyl)-2-oxo-spiro[indoline-3,4′-pyrrolidine]-2′-carbonyl]amino-3-methoxy-benzoic acid] |
| ≤ 20 | ≤ 3.6 |  | COc1cc(C(N)=O)ccc1NC(=O)[C@@H]1N[C@@H](C[C@H](C)C(F)(F)F)[C@@]2(C(=O)Nc3cc(Cl)ccc32)[C@H]1c1cccc(Cl)c1F [Example 66, (2′R,3R,3′S,5′S)-N-(4-carbamoyl-2-methoxy-phenyl)-6-chloro-3′-(3-chloro-2-fluoro-phenyl)-2-oxo-5′-[(2S)-3,3,3-trifluoro-2-methyl-propyl]spiro[indoline-3,4′-pyrrolidine]-2′-carboxamide] |
|  | ≤ 7.2 |  | COC(=O)c1ccc(NC(=O)[C@@H]2N[C@@H](CC3(CF)CC3)C3(C(=O)Nc4cc(Cl)ccc43)[C@H]2c2cccc(Cl)c2F)c(OC)c1 (stereo partly shown) [Example 73, 4-{[6-chloro-4′-(3-chloro-2-fluoro-phenyl)-2′-(1-fluoromethyl-cyclopropylmethyl)-2-oxo-1,2-dihydro-spiro[indole-3,3′-pyrrolidin]e-5′-carbonyl]-amino}-3-methoxy-benzoic acid methyl ester] |
| ≤ 20 | ≤ 7.2 |  | COc1cc(C(N)=O)ccc1NC(=O)[C@@H]1N[C@@H](CC2(CF)CC2)C2(C(=O)Nc3cc(Cl)ccc32)[C@H]1c1cccc(Cl)c1F (stereo partly shown) [Example 75, 6-chloro-4′-(3-chloro-2-fluoro-phenyl)-2′-(1-fluoromethyl-cyclopropylmethyl)-2-oxo-1,2-dihydro-spiro[indole-3,3′-pyrrolidine]-5-carboxylic acid (4-carbamoyl-2-methoxy-phenyl)-amide] |

Source: patent US9701685B2, “Spiropyrrolidines as MDM2 inhibitors” (HUDSON BIOPHARMA INC., priority 2014, dated 2017)
